Assay results taken from patent US4185016A, “Pyrrolo benzodiazepine compounds” (priority 1977, dated 1980).
Where two headings read alike, the source gives them in different places.

Experiments:
[1] = in vivo; set-up: species or system DD strain male mice; details: mouse, ip
Procedure: LD50 values of the compounds of this invention were determined by the use of DD strain male mice having body weight of 18 to 20 g, 5 heads per one group. Each test compound was dissolved into physiological solution of sodium chloride containing 1% dimethyl sulfoxide and administered intraperitoneally to the animals. The dose levels were 20 mg/kg, 16.7 mg/kg, 13.9 mg/kg, 11.6 mg/kg and 9.6 mg/kg. One week after the administration, LD50 was determined.
(§1) The compounds used in the antitumor activity test and the acute toxicity test were the aforementioned novel compounds. The results of tests concerning the compounds of general formula (I) are listed in Table 1, while those concerning the compounds of general formula (II) are listed in Table 2.

[2] = test system: Leukaemia P388; type: in vivo, CDF1 male mice; details: ip
Excerpt: CDF1 male mice having body weight of 18 to 20 g, 10 heads per one group, were inoculated with 2×10^5 cells/mouse Leukaemia P388. Twenty four hours after the inoculation, an appointed dose of test compound was intraperitoneally administered to the animals of administration group, after which the administration was repeated for successive 6 days. The survival day numbers of the animals were counted.
Survival time of the animals was expressed by average survival day number.
as §1

[3] = U.S. Pat. No. 3,361,742 and J. Am. Chem. Soc., 87, 5791-5793 (1965); cited from earlier work
[4] = U.S. Pat. No. 3,361,742 and J. Am. Chem. Soc., 87, 5791-5793 (1965); cited from earlier work; remark: listed apart in the source
[5] = intraperitoneal, one week after administration, read-out: Acute toxicity LD50

Row | Compound | LD50 at 168 h [1, 5] [mg/kg] | other results
1 | COc1ccc2c(c1OC(C)=O)NC(OC)C1CCCN1C2=O (centres unmarked) [Example 28, 2,3,5,10,11,11a-hexahydro-9-acetoxy-8,11-dimethoxy-1H-pyrrolo[2,1-C][1,4]benzodiazepin-5-one] | 12.3 | 
2 | O=C1c2cccc(O)c2NC(O)C2CCCN12 (centres unmarked) [Example 14, 2,3,5,10,11,11a-hexahydro-9,11-dihydroxy-1H-pyrrolo[2,1-C][1,4]benzodiazepin-5-one] | 12.5 | 
3 | CC(=O)Oc1c(C)ccc2c1N=CC1CCCN1C2=O (centres unmarked) [20, 19] | 12.8 | 
4 | COC1Nc2c(O)cccc2C(=O)N2CCCC12 (centres unmarked) [5, 13] | 12.8 | Antitumor activity, Life-prolongation rate ([2]; 2.5 mg/kg): 127.0%; Antitumor activity, Life-prolongation rate ([2]; 5 mg/kg): 148.0%
5 | Cc1ccc2c(c1O)N=CC1CCCN1C2=O (centres unmarked) [Example 8, 2,3,5,11a-tetrahydro-9-hydroxy-8-methyl-1H-pyrrolo[2,1-C][1,4]benzodiazepin-5-one] | 13.6 | Antitumor activity, Life-prolongation rate ([2]; 2.5 mg/kg): 126.7%; Antitumor activity, Life-prolongation rate ([2]; 5 mg/kg): 148.7%
6 | Cc1ccc2c(c1O)NC(O)C1CCCN1C2=O (centres unmarked) [Example 12, 2,3,5,10,11,11a-hexahydro-9,11-dihydroxy-8-methyl-1H-pyrrolo[2,1-C][1,4]benzodiazepin-5-one] | 12.9 | 
7 | CCOC1Nc2c(ccc(C)c2O)C(=O)N2CCCC12 (centres unmarked) [Example 7, 2,3,5,10,11,11a-hexahydro-11-ethoxy-9-hydroxy-8-methyl-1H-pyrrolo[2,1-C][1,4]benzodiazepin-5-one] | 13.3 | 
8 | COc1ccc2c(c1OC(C)=O)NC(O)C1CCCN1C2=O (centres unmarked) [Example 27, 2,3,5,10,11,11a-hexahydro-9-acetoxy-11-hydroxy-8-methoxy-1H-pyrrolo[2,1-C][1,4]benzodiazepin-5-one] | 12.4 | 
9 | COc1ccc2c(c1O)NC(OC)C1CCCN1C2=O (centres unmarked) [15, 6] | 12.7 | 
10 | COC1Nc2c(ccc(C)c2OC(C)=O)C(=O)N2CCCC12 (centres unmarked) [17, 21] | 13.9 | Antitumor activity, Life-prolongation rate ([2]; 2.5 mg/kg): 125.0%; Antitumor activity, Life-prolongation rate ([2]; 5 mg/kg): 149.0%
11 | COC1Nc2c(OC(C)=O)cccc2C(=O)N2CCCC12 (centres unmarked) [24, 33] | 12.4 | Antitumor activity, Life-prolongation rate ([2]; 2.5 mg/kg): 121.6%; Antitumor activity, Life-prolongation rate ([2]; 5 mg/kg): 143.8%
12 | CC(=O)Oc1c(C)ccc2c1NC(O)C1CCCN1C2=O (centres unmarked) [Example 22, 2,3,5,10,11,11a-hexahydro-9-acetoxy-11-hydroxy-8-methyl-1H-pyrrolo[2,1-C][1,4]benzodiazepin-5-one] | 13.5 | 
13 | COC1Nc2c(ccc(C)c2O)C(=O)N2CCCC12 (centres unmarked) [4, 11] |  | LD50 at 168 h [1]: 13.8 mg/kg
14 | O=C1c2cccc(O)c2N=CC2CCCN12 (centres unmarked) [Example 9, 2,3,5,11a-tetrahydro-9-hydroxy-1H-pyrrolo[2,1-C][1,4]benzodiazepin-5-one] | 13.1 | 
15 | Cc1ccc2c(c1O)NC(O)C1CC(/C=C/C(N)=O)=CN1C2=O (centres unmarked) [5,10,11,11a-tetrahydro-9,11-dihydroxy-8-methyl-5-oxo-1H-pyrrolo[2,1-C][1,4]-benzodiazepin-2-acrylamide] |  | antitumor activity [3]: antitumor; antibacterial activity [4]: antibacterial
16 | CC(=O)Oc1cccc2c1NC(O)C1CCCN1C2=O (centres unmarked) [Example 23, 2,3,5,10,11,11a-hexahydro-9-acetoxy-11-hydroxy-1H-pyrrolo[2,1-C][1,4]-benzodiazepin-5-one] | 12.7 | 
17 | COc1ccc2c(c1O)NC(O)C1CCCN1C2=O (centres unmarked) [Example 16, 2,3,5,10,11,11a-hexahydro-9,11-dihydroxy-8-methoxy-1H-pyrrolo[2,1-C][1,4]benzodiazepin-5-one] | 12.6 | 
18 | CCOC1Nc2c(ccc(OC)c2OC(C)=O)C(=O)N2CCCC12 (centres unmarked) [Example 30, 2,3,5,10,11,11a-hexahydro-9-acetoxy-11-ethoxy-8-methoxy-1H-pyrrolo[2,1-C][1,4]benzodiazepin-5-one] | 12.7 | 
19 | CCOC1Nc2c(O)cccc2C(=O)N2CCCC12 (centres unmarked) [Example 25, 2,3,5,10,11,11a-hexahydro-11-ethoxy-9-hydroxy-1H-pyrrolo[2,1-C][1,4]benzodiazepin-5-one] | 13 | 
20 | CCOC1Nc2c(ccc(OC)c2O)C(=O)N2CCCC12 (centres unmarked) [Example 29, 2,3,5,10,11,11a-hexahydro-11-ethoxy-9-hydroxy-8-methoxy-1H-pyrrolo[2,1-C][1,4]benzodiazepin-5-one] | 12.2 | Antitumor activity, Life-prolongation rate ([2]; 2.5 mg/kg): 123.3%; Antitumor activity, Life-prolongation rate ([2]; 5 mg/kg): 141.4%
21 | COc1ccc2c(c1O)N=CC1CCCN1C2=O (centres unmarked) [Example 10, 2,3,5,11a-tetrahydro-9-hydroxy-8-methoxy-1H-pyrrolo[2,1-C][1,4]benzodiazepin-5-one] | 13.3 | Antitumor activity, Life-prolongation rate ([2]; 2.5 mg/kg): 126.7%; Antitumor activity, Life-prolongation rate ([2]; 5 mg/kg): 145.6%
22 | CCOC1Nc2c(OC(C)=O)cccc2C(=O)N2CCCC12 (centres unmarked) [Example 26, 2,3,5,10,11,11a-hexahydro-9-acetoxy-11-ethoxy-1H-pyrrolo[2,1-C][1,4]benzodiazepin-5-one] | 13.2 | 
23 | COc1ccc2c(c1OC(C)=O)N=CC1CCCN1C2=O (centres unmarked) [Example 32, 2,3,5,11a-tetrahydro-9-acetoxy-8-methoxy-1H-pyrrolo[2,1-C][1,4]benzodiazepin-5-one] | 13.7 | 
24 | CCOC1Nc2c(ccc(C)c2OC(C)=O)C(=O)N2CCCC12 (centres unmarked) [Example 18, 2,3,5,10,11,11a-hexahydro-9-acetoxy-11-ethoxy-8-methyl-1H-pyrrolo[2,1-C][1,4]benzodiazepin-5-one] | 12.8 | 
25 | CC(=O)Oc1cccc2c1N=CC1CCCN1C2=O (centres unmarked) [Example 31, 2,3,5,11a-tetrahydro-9-acetoxy-1H-pyrrolo[2,1-C][1,4]benzodiazepin-5-one] | 13.4 | 
